Target: E275C gp120 (Human immunodeficiency virus type 1 group M subtype B, UniProt P35961, E271C)
Test: covalent labeling
Format: biochemical, HIV-1
Conditions: α-biotin Western blot, reactants in 2-fold excess (Figure 3)

In the case of `O=C(CCCC[C@@H]1SC[C@@H]2NC(=O)N[C@@H]21)NCCOCCOCCNC(=O)CCN1C(=O)C=CC1=O` [MPB, Maleimide-PEG2-biotin, reference compound], the “biotinylation (labeling) of E275C gp120” value is reported as “yields significantly lower”.

— article PMC4045323 (Biochemistry, 2014)
